Source: PubChem BioAssay (NCI)
“And” between values parts separate entries of the source, which are not always exact repeats. Equal entries are not always repeated.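 1) Cells in 96-well plates. 2) Compound, 48 h, 5 concentrations. 3) Linear interpolation between surrounding doses. 4) Unreached endpoint = highest concentration. GI50 is the concentration that inhibits growth by half. At the TGI there is no net growth.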

Legend:
Assay in all cases: growth of human tumour cells (NCI), 48 h
[1] = tested on: LOX IMVI melanoma
[2] = tested on: M14 melanoma
[3] = tested on: IGROV1 ovarian
[4] = tested on: NCI-H522 lung
[5] = tested on: HCT-116 colon
[6] = tested on: SR leukemia
[7] = tested on: K-562 leukemia
[8] = tested on: MDA-MB-435
[9] = tested on: SNB-19 CNS
[10] = tested on: HL-60(TB) leukemia

SMILES	GI50 [1] [µM]	TGI [1] [µM]	GI50 [2] [µM]	TGI [2]	GI50 [3] [µM]	TGI [3]	GI50 [4]	TGI [4]	GI50 [5] [µM]	TGI [5]	TGI [6] [µM]	GI50 [7] [µM]	TGI [7]	GI50 [8] [µM]	TGI [8]	TGI [9]	GI50 [10]	TGI [10]	GI50 [6] [µM]	GI50 [9] [µM]
CO[C@@H]1/C=C\C=C(/C)C(=O)NC2=CC(=O)C(NCCN(C)C)=C(C[C@@H](C)C[C@@H](OC)[C@@H](O)[C@H](C)/C=C(\C)[C@H]1OC(N)=O)C2=O	< 0.013	0.379	0.0125	6.51 µM and 4.99 µM	0.0164	1.85 µM and 1.99 µM	< 0.01 µM and 0.0228 µM	0.709 µM and 3.57 µM	0.0192	1.52 µM and 2.3 µM	10.6	0.0158	3.22 µM and 13.6 µM	< 0.0124	3.1 µM and 1.32 µM	7.99 µM and 15.5 µM	< 0.0106 µM and 0.0715 µM	1.4 µM and 0.734 µM		
COc1ccc(CN(C)c2ccc(CO)c(Cl)c2)cc1	27.9	> 100	22.7	> 95.5 µM	0.405	3.3 µM	22.4 µM	> 80.7 µM	0.368	14.2 µM	> 100	7.59	> 100 µM	24.2	95.4 µM	> 100 µM	17.7 µM	64.8 µM	27	34
CC1=C2[C@@H](CC1)[C@]1(C)O[C@@](C3CCCCC3)(C[C@H]1OC(=O)CO)[C@H]2OC(=O)/C=C/c1ccccc1	5.31	11.2	8.9	26.8 µM	18.7	44.1 µM	7.71 µM	22.5 µM	7.12	21.1 µM	17.9	7.14	32.1 µM	8.65	23.6 µM	31.4 µM	6.48 µM	18.3 µM	4.6	13.1
Cc1nc2sc(C(=O)Nc3cccc(Cl)c3C)c(N)c2cc1C(=O)/C=C/c1ccccc1	0.188	0.711	0.239	1.35 µM	0.316	1.1 µM	0.172 µM	0.999 µM	0.186	0.707 µM		0.251	> 50 µM	0.111	0.263 µM	3.11 µM	0.575 µM	2.13 µM	0.188	0.651
CC(=O)c1c(C)[nH]c(-c2nc3ccc(N4CCN(C)CC4)cc3[nH]2)c1-c1ccc(OCC2CCOCC2)cc1	0.318	1.45	0.63	4.64 µM	0.854	12.8 µM	0.548 µM	13.8 µM	0.714	12.7 µM	5.73	0.37	9.08 µM	0.477	12.2 µM	25.1 µM	0.129 µM	0.785 µM	0.685	2.2
CSc1ccc(C2=NN(C(=O)c3ccc(F)cc3)C(c3ccc(F)cc3)C2)cc1 (configuration not stated)	3.62	12.3	9.43	22.1 µM	4.91	18.8 µM	13.3 µM	27.7 µM	3.61	12.7 µM	5.95	3.91	16.6 µM	10.6	26.8 µM	27.5 µM	12 µM	35.3 µM	1.71	14.3
COc1cc(/C=C/C(=O)CC(=O)/C=C/c2cc(OC)c(OC)c(OC)c2)cc(OC)c1OC	2.19	9.14	3.9	40 µM	2.83	8.22 µM	1.9 µM	3.78 µM	1.71	4.26 µM	9.55	2.82	> 100 µM	2.52	7.23 µM	> 100 µM	5.15 µM	> 100 µM	2.19	4.36
Cc1ccccc1NC(=O)N/C(N)=N/c1nc(-c2cccc([N+](=O)[O-])c2)cs1	1.79	5.17	2.15	19.6 µM	1.71	11.5 µM	1.79 µM	> 100 µM	1.58	3.18 µM	> 100	0.555	> 100 µM	0.505	4.51 µM	15.8 µM	3.56 µM	> 100 µM	0.594	3.29
Cc1cc(I)cc(CN(C)CCCN2CCSCC2)c1O	17.2	33.5	17.3	33.2 µM	33.3	> 100 µM	23.6 µM	55.9 µM	13.3	30.8 µM	25.3	14.2	32.6 µM	23.2	57.5 µM	55.6 µM	18.8 µM	36.6 µM	10.6	25.6
CC12OC(c3ccccc3)=CC(c3ccc(Cl)cc3)=C1C(c1ccccc1)=CC2=O (configuration not stated)	46	> 100	28.2	83 µM	> 100	> 100 µM	72.2 µM	> 100 µM	46.1	> 100 µM	67	28.9	> 100 µM	81.3	> 100 µM	> 100 µM	23.2 µM	77.7 µM	19.1	> 100
CCOC(=O)Nc1nc2ccc(Cn3cccc3)cc2[nH]1		> 100		> 100 µM		> 100 µM		2.1 µM		> 100 µM	> 36.2		> 100 µM		0.731 µM	> 100 µM		13.4 µM		
O=C(O[C@H]1CN[C@H](C#Cc2cc3ncnc(Nc4ccc5c(ccn5Cc5cc(F)ccc5F)c4)c3s2)C1)N1CCOCC1	3.5	9.28	6.26	17.1 µM	1.33	> 16.7 µM	0.147 µM	4.1 µM	3.19	7.44 µM	24.5	6.49	> 25 µM	5.13	18.2 µM	> 25 µM	3.5 µM	11 µM	6.28	4.46
